From paper PMC7508628, “Targeting the Respiratory Syncytial Virus N^0-P Complex with Constrained α-Helical Peptides in Cells and Mice” (Antimicrobial Agents and Chemotherapy, 2020)
Where a SMILES comes first, the peptide text is derived from it. Bridges are numbered along the chain shown (N, C = ends). [ ]: non-standard residue; d: D form. R8 = C=CCCCCCC[C@@](C)(N)C(=O)O; R5 = C=CCCC[C@@](C)(N)C(=O)O; S5 = C=CCCC[C@](C)(N)C(=O)O

Columns and labels:
[1] = Circular dichroism spectroscopy, α-helical content; format: physicochemical; conditions: CD, 10 mM phosphate buffer pH 7.5, 50 μM peptide, 25°C, calculated from ellipticity at 222 nm; average of three measurements
Protocol: The α-helical stabilization appeared to be higher for the i, i + 7 staples overall.
The circular dichroism spectra were acquired on a Chirascan spectropolarimeter. The samples were prepared in 10 mM phosphate buffer, pH 7.5, at a peptide concentration of 50 μM. Data were recorded at 25°C by step scan from 180 nm to 260 nm in a 0.5-mm-pathlength quartz cell using 0.2-nm-wavelength increments, a 1-nm bandwidth, and a response time of 1 s. Each spectrum was an average of three measurements and was subtracted from the buffer baseline. The data were converted to per residue molar ellipticity units (θ; in degrees · square centimeters · decimoles^−1 · number of residues^−1) and smoothed using Igor Pro software. Percent helicity was calculated as follows: (100 × CD222)/(C × N × {40,000 × [1 − (2.5/N)]}), where CD222 is the molar ellipticity (θ) at 222 nm (in millidegrees), N is the number of amino acids in the peptide, and C is the peptide molar concentration (in moles per liter).

rHRSV-mCherry = conditions: read-out: EC50 (half-maximal response inhibitory concentration), inhibition of RSV infection; HEp-2 cells, MOI 0.2, peptides added after 2 h infection, mCherry fluorescence at 48 h postinfection; duplicates
HEp-2 cells = assay: HEp-2 cell viability (CellTiter-Glo luminescent cell viability assay); conditions: peptide alone at 50 μM; duplicates
Protocol: (B) HEp-2 cell viability upon treatment with peptides alone at peptide concentrations of 50, 25, and 12.5 μM. Error bars are standard deviations from duplicates. Data are representative of those from two independent experiments.
Cytotoxicity assays were done with the CellTiter-Glo luminescent cell viability assay (Promega). Each experiment was performed in duplicate and repeated at least twice.

[2] = molecular target: monomeric N protein (N^mono), recombinant N^K170A/R185A (Human respiratory syncytial virus A, UniProt P03418, K170A/R185A); assay: Fluorescence polarization competition assay: displacement of FAM–P(1–40) from monomeric N; format: binding; conditions: FP competition with FAM–P(1–40) probe
Chain of monomeric N protein (N^mono), recombinant N^K170A/R185A (P03418 whole entry K170A/R185A, looked up): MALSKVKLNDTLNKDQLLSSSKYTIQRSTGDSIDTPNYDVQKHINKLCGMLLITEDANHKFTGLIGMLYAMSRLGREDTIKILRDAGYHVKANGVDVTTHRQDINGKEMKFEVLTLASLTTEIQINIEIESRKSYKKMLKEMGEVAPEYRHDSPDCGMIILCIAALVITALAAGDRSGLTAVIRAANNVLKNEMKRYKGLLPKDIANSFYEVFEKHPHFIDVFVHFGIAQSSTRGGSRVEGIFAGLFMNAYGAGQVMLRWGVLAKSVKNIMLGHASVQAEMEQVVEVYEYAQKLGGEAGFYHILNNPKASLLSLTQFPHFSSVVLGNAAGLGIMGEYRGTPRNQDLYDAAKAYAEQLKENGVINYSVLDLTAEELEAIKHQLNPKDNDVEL

circular dichroism = conditions: 10 mM phosphate; pH 7.5; 25 °C; 50 uM

**Q.** With `CC[C@H](C)[C@H](NC(=O)[C@]1(C)CCCC=CCCCCCC[C@@](C)(NC(=O)[C@H](CCC(=O)O)NC(=O)[C@H](CC(N)=O)NC(=O)[C@H](C)NC(=O)[C@]2(C)CCCC=CCCC[C@@](C)(NC(=O)[C@H](Cc3ccccc3)NC(=O)[C@H](CCC(=O)O)NC(C)=O)C(=O)NCC(=O)N[C@@H](CCC(=O)O)C(=O)N2)C(=O)N[C@@H](C)C(=O)N[C@@H]([C@@H](C)O)C(=O)N[C@@H](CCCCN)C(=O)N[C@@H](Cc2ccccc2)C(=O)N[C@@H](CC(C)C)C(=O)N[C@@H](C)C(=O)N1)C(=O)N[C@@H](CCCCN)C(=O)NCC(=O)N[C@@H](CCCCN)C(=O)N[C@@H](Cc1ccccc1)C(=O)N[C@@H](C)C(=O)N[C@@H](CO)C(N)=O` [5b] (Ac-EF[R5]GE[S5]ANE[R8]ATKFLA[S5]IKGKFAS-NH2; staple 3-6, 10-17) as the compound, how does the “% helicity” value [1] read?
**A.** Its value is over 100%.

**Q.** What about the EC50 (rHRSV-mCherry) of the same compound?
**A.** Its EC50 is 16.9 ± 5.1 µM.

**Q.** What about the “Toxicity for uninfected HEp-2 cells (cell viability)” value (HEp-2 cells) of the same compound?
**A.** The value was “some toxicity”.

**Q.** Which “% helicity” value [1] does the source give for `CC[C@H](C)[C@H](NC(=O)[C@H](CO)NC(=O)[C@H](CCC(=O)O)NC(=O)[C@H](CC(C)C)NC(=O)[C@H](Cc1ccccc1)NC(=O)[C@H](CCCCN)NC(=O)[C@@H](NC(=O)[C@H](C)NC(=O)[C@H](CCCCN)NC(=O)[C@H](CC(N)=O)NC(=O)[C@H](CC(N)=O)NC(=O)[C@H](C)NC(=O)[C@H](CC(=O)O)NC(=O)[C@H](CCC(=O)O)NC(C)=O)[C@@H](C)O)C(=O)N[C@@H](CCCCN)C(=O)NCC(=O)N[C@]1(C)CCCC=CCCC[C@@](C)(C(N)=O)NC(=O)[C@H](C)NC(=O)[C@H](Cc2ccccc2)NC1=O` [1g] (Ac-EDANNKATKFLESIKG[R5]FA[S5]-NH2; staple 17-20) here?
**A.** Its value is 25.5%.

**Q.** And the “Competitive binding to N^mono (in words)” value [2]?
**A.** The value was “detrimental to the binding”.

**Q.** What about the helicity (circular dichroism) of the same compound?
**A.** The helicity was 25.5%.

**Q.** Which results are given for `CC[C@H](C)[C@H](NC(=O)[C@H](CO)NC(=O)[C@]1(C)CCCC=CCCCCCC[C@@](C)(NC(=O)[C@H](CC(N)=O)NC(=O)[C@H](C)NC(=O)[C@H](CC(=O)O)NC(=O)[C@H](CCC(=O)O)NC(=O)CNC(=O)[C@H](Cc2c[nH]cn2)NC(=O)[C@H](Cc2ccccc2)NC(=O)[C@H](CCC(=O)O)NC(C)=O)C(=O)N[C@@H](CCCCN)C(=O)N[C@@H](C)C(=O)N[C@@H]([C@@H](C)O)C(=O)N[C@@H](CCCCN)C(=O)N[C@@H](Cc2ccccc2)C(=O)N[C@@H](CC(C)C)C(=O)N1)C(=O)N[C@@H](CCCCN)C(=O)N[C@]1(C)CCCC=CCCC[C@@](C)(C(=O)N[C@@H](CO)C(N)=O)NC(=O)[C@H](Cc2ccccc2)NC(=O)[C@H](CCCCN)NC1=O` [3a1f] (Ac-EFHGEDAN[R8]KATKFL[S5]SIK[R5]KF[S5]S-NH2; staple 9-16, 20-23)?
**A.** % helicity [1]: 37.7%; EC50 (rHRSV-mCherry): 25.3 ± 17.9 µM

**Q.** Which results are given for `CC[C@H](C)[C@H](NC(=O)[C@H](CO)NC(=O)[C@]1(C)CCCC=CCCC[C@](C)(NC(=O)[C@H](C)NC(=O)[C@H](CCCCN)NC(=O)[C@H](CC(N)=O)NC(=O)[C@H](CC(N)=O)NC(=O)[C@H](C)NC(=O)[C@H](CC(=O)O)NC(=O)[C@H](CCC(=O)O)NC(=O)CNC(=O)[C@H](Cc2c[nH]cn2)NC(=O)[C@H](Cc2ccccc2)NC(=O)[C@H](CCC(=O)O)NC(C)=O)C(=O)N[C@@H](CCCCN)C(=O)N[C@@H](Cc2ccccc2)C(=O)N[C@@H](CC(C)C)C(=O)N1)C(=O)N[C@@H](CCCCN)C(=O)N[C@]1(C)CCCC=CCCC[C@@](C)(C(=O)N[C@@H](CO)C(N)=O)NC(=O)[C@H](Cc2ccccc2)NC(=O)[C@H](CCCCN)NC1=O` [2b1f] (Ac-EFHGEDANNKA[S5]KFL[S5]SIK[R5]KF[S5]S-NH2; staple 12-16, 20-23)?
**A.** % helicity [1]: 37.6%; EC50 (rHRSV-mCherry): 41 ± 0.5 µM

**Q.** Which “% helicity” value [1] does the source give for `CC[C@H](C)[C@H](NC(=O)[C@]1(C)CCCC=CCCCCCC[C@@](C)(NC(=O)[C@H](CC(N)=O)NC(=O)[C@H](CC(N)=O)NC(=O)[C@H](C)NC(=O)[C@]2(C)CCCC=CCCC[C@@](C)(NC(=O)[C@H](Cc3ccccc3)NC(=O)[C@H](CCC(=O)O)NC(C)=O)C(=O)NCC(=O)N[C@@H](CCC(=O)O)C(=O)N2)C(=O)N[C@@H](C)C(=O)N[C@@H]([C@@H](C)O)C(=O)N[C@@H](CCC(=O)O)C(=O)N[C@@H](Cc2ccccc2)C(=O)N[C@@H](CC(C)C)C(=O)N[C@@H](CCCCN)C(=O)N1)C(=O)N[C@@H](CCCCN)C(=O)NCC(=O)N[C@@H](CCCCN)C(=O)N[C@@H](Cc1ccccc1)C(=O)N[C@@H](C)C(=O)N[C@@H](CO)C(N)=O` [5c] (Ac-EF[R5]GE[S5]ANN[R8]ATEFLK[S5]IKGKFAS-NH2; staple 3-6, 10-17) here?
**A.** The value was 79.7%.

**Q.** What about the EC50 (rHRSV-mCherry) of the same compound?
**A.** The EC50 was 18.5 ± 10.6 µM.

**Q.** And the “Toxicity for uninfected HEp-2 cells (cell viability)” value (HEp-2 cells)?
**A.** Its value is “no toxicity”.

**Q.** For `CC[C@H](C)[C@H](NC(=O)[C@H](CO)NC(=O)[C@]1(C)CCCC=CCCC[C@@](C)(NC(=O)[C@@H](NC(=O)[C@H](C)NC(=O)[C@H](CCCCN)NC(=O)[C@H](CC(N)=O)NC(=O)[C@H](CC(N)=O)NC(=O)[C@H](C)NC(=O)[C@H](CC(=O)O)NC(=O)[C@H](CCC(=O)O)NC(=O)CNC(=O)[C@H](Cc2c[nH]cn2)NC(=O)[C@H](Cc2ccccc2)NC(=O)[C@H](CCC(=O)O)NC(C)=O)[C@@H](C)O)C(=O)N[C@@H](Cc2ccccc2)C(=O)N[C@@H](CC(C)C)C(=O)N1)C(=O)N[C@@H](CCCCN)C(=O)N[C@]1(C)CCCC=CCCC[C@@](C)(C(=O)N[C@@H](CO)C(N)=O)NC(=O)[C@H](Cc2ccccc2)NC(=O)[C@H](CCCCN)NC1=O` [1c1f] (Ac-EFHGEDANNKAT[R5]FL[S5]SIK[R5]KF[S5]S-NH2; staple 13-16, 20-23), which “% helicity” value [1] is on record?
**A.** Its value is 39.2%.

**Q.** And the EC50 (rHRSV-mCherry)?
**A.** The EC50 was over 100 µM.

**Q.** What does the source list for `CC[C@H](C)[C@H](NC(=O)[C@H](CO)NC(=O)[C@H](CCC(=O)O)NC(=O)[C@H](CC(C)C)NC(=O)[C@H](Cc1ccccc1)NC(=O)[C@H](CCCCN)NC(=O)[C@]1(C)CCCC=CCCC[C@@](C)(NC(=O)[C@H](CC(N)=O)NC(=O)[C@H](C)NC(=O)[C@H](CC(=O)O)NC(=O)[C@H](CCC(=O)O)NC(C)=O)C(=O)N[C@@H](CCCCN)C(=O)N[C@@H](C)C(=O)N1)C(=O)N[C@@H](CCCCN)C(=O)NCC(=O)N[C@@H](CCCCN)C(=O)N[C@@H](Cc1ccccc1)C(=O)N[C@@H](C)C(=O)N[C@@H](CO)C(N)=O` [1a] (Ac-EDAN[R5]KA[S5]KFLESIKGKFAS-NH2; staple 5-8)?
**A.** % helicity [1]: 5.5%; Competitive binding to N^mono (in words) [2]: detrimental to the binding; helicity (circular dichroism): 5.5%

**Q.** Which results are given for `CC(=O)N[C@@H](CCC(=O)O)C(=O)N[C@@H](CC(=O)O)C(=O)N[C@@H](C)C(=O)N[C@@H](CC(N)=O)C(=O)N[C@@H](CC(N)=O)C(=O)N[C@@H](CCCCN)C(=O)N[C@@H](C)C(=O)N[C@H](C(=O)N[C@@H](CCCCN)C(=O)N[C@@]1(C)CCCC=CCCC[C@@](C)(C(=O)N[C@@H](CCCCN)C(=O)NCC(=O)N[C@@H](CCCCN)C(=O)N[C@@H](Cc2ccccc2)C(=O)N[C@@H](C)C(=O)N[C@@H](CO)C(N)=O)NC(=O)[C@H](CO)NC(=O)[C@H](CCC(=O)O)NC(=O)[C@H](CC(C)C)NC1=O)[C@@H](C)O` [2d] (Ac-EDANNKATK[S5]LES[S5]KGKFAS-NH2; staple 10-14)?
**A.** % helicity [1]: 10.1%; Competitive binding to N^mono (in words) [2]: no competition could be observed; helicity (circular dichroism): 10.1%

**Q.** What does the source list for `CC(=O)N[C@@H](CCC(=O)O)C(=O)N[C@@H](CC(=O)O)C(=O)N[C@@H](C)C(=O)N[C@@H](CC(N)=O)C(=O)N[C@@H](CC(N)=O)C(=O)N[C@@H](CCCCN)C(=O)N[C@@H](C)C(=O)N[C@H](C(=O)N[C@@H](CCCCN)C(=O)N[C@@H](Cc1ccccc1)C(=O)N[C@]1(C)CCCC=CCCC[C@@](C)(C(=O)N[C@@H](CCCCN)C(=O)NCC(=O)N[C@@H](CCCCN)C(=O)N[C@@H](Cc2ccccc2)C(=O)N[C@@H](C)C(=O)N[C@@H](CO)C(N)=O)NC(=O)[C@H](CO)NC(=O)[C@H](CCC(=O)O)NC1=O)[C@@H](C)O` [1d] (Ac-EDANNKATKF[R5]ES[S5]KGKFAS-NH2; staple 11-14)?
**A.** % helicity [1]: 24.2%; Competitive binding to N^mono (in words) [2]: no competition could be observed; helicity (circular dichroism): 24.2%

**Q.** Which results are given for `CC[C@H](C)[C@H](NC(=O)[C@]1(C)CCCC=CCCCCCC[C@@](C)(NC(=O)[C@H](CC(N)=O)NC(=O)[C@H](CC(N)=O)NC(=O)[C@H](C)NC(=O)[C@]2(C)CCCC=CCCC[C@@](C)(NC(=O)[C@H](Cc3ccccc3)NC(=O)[C@H](CCC(=O)O)NC(C)=O)C(=O)NCC(=O)N[C@@H](CCC(=O)O)C(=O)N2)C(=O)N[C@@H](C)C(=O)N[C@@H]([C@@H](C)O)C(=O)N[C@@H](CCCCN)C(=O)N[C@@H](Cc2ccccc2)C(=O)N[C@@H](CC(C)C)C(=O)N[C@@H](CCC(=O)O)C(=O)N1)C(=O)N[C@@H](CCCCN)C(=O)NCC(=O)N[C@@H](CCCCN)C(=O)N[C@@H](Cc1ccccc1)C(=O)N[C@@H](C)C(=O)N[C@@H](CO)C(N)=O` [4a3b] (Ac-EF[R5]GE[S5]ANN[R8]ATKFLE[S5]IKGKFAS-NH2; staple 3-6, 10-17)?
**A.** % helicity [1]: 73.2%; Competitive binding to N^mono (in words) [2]: inactive; EC50 (rHRSV-mCherry): 14.6 ± 13.9 µM
